Data published in EP1275386A1, “SOLID […] IMPROVED ABSORBABILITY” (FUJISAWA PHARMACEUTICAL CO., LTD., priority 2000, dated 2001).

What was measured:
[1] = Test on solubility of active component in water (Test Example 1); assay type: physicochemical; settings: 15mg equivalent of Active Component 1 in 7.5 mL of water at 37 °C, agitated with a stirrer; dihydrate
From the text: Compared was the solubility of the solid dispersions obtained in Examples 2, 3 and 5 (referred to as "Preparation 2," "Preparation 3" and "Preparation 5," respectively, hereinafter) containing as an active ingredient N-(3,4-dimethoxybenzyl)-2-[(trans-4-formamidocyclohexyl)amino]-5-nitrobenzamide dihydrate (referred to as "Active Component 1" hereinafter), the amorphous Active Component 1 obtained in Comparative Example 1 and the crystal Active Component 1 obtained in Production Example 1. The test was performed by adding Preparations 2, 3 and 5, the amorphous Active Component 1 and the crystal Active Component 1 each containing 15mg equivalent of Active Component 1 to 7.5 mL of water heated to 37 °C, agitating the resulting mixtures with a stirrer and measuring the concentration of Active Component 1 in the solutions. The results are shown in Fig. 1, which is a graphical representation showing the change with time of the solubility in water of Preparations 2, 3 and 5, the amorphous Active Component 1 and the crystal Active Component 1. […]

[2] = Test on crystal state of Active Component 1 by DSC, storage at 70 °C for 7 days (Test Example 2); assay type: physicochemical
Procedure: Preparations 2 and 3 containing Active Component 1 and the amorphous Active Component 1 after being stored at 70 °C for 7 days were tested on the crystal state of Active Component 1 by differential scanning calorimetry (DSC for short hereinafter). […]

| Structure (SMILES) | Maximum Concentration Achieved of Active Component 1 in water [1] | D S C analysis results ([2]; After storage at 70 °C for 7 days) | D S C analysis results ([2]; Before storage) | change of crystal state of Active Component 1 ([2]; after being stored at 70 °C for 7 days, DSC) |
| --- | --- | --- | --- | --- |
| COc1ccc(CNC(=O)c2cc([N+](=O)[O-])ccc2N[C@H]2CC[C@H](NC=O)CC2)cc1OC.O.O [Amorphous Active Component 1, N-(3,4-dimethoxybenzyl)-2-[(trans-4-formamidocyclohexyl)amino]-5-nitrobenzamide dihydrate] | 8.68 µg/mL | Endothermic peak caused by melting indicative of existence of crystal was recognized. | Endothermic peak caused by melting indicative of existence of crystal was not recognized. | changed from the amorphous state to a crystal state |
| COc1ccc(CNC(=O)c2cc([N+](=O)[O-])ccc2N[C@H]2CC[C@H](NC=O)CC2)cc1OC.O.O [Crystal Active Component 1, N-(3,4-dimethoxybenzyl)-2-[(trans-4-formamidocyclohexyl)amino]-5-nitrobenzamide dihydrate] | 0.38 µg/mL | – | – | – |
